# Experimental data as given in US9840509B2, “Heterocyclic compounds” (CADILA HEALTHCARE LIMITED, priority 2014, dated 2017).
# How the values were obtained:
# SCW Arthritis Model = assay: SCW Arthritis model (PGPS-induced paw swelling); assay type: in vivo, Female Sprague dawley (SD) rats; details: Dose: 10 mpk, po, rats, Mean ± SD, n = 8
# Description: All the animal experiments were carried out in female rats and mice, bred in-house. Animals were housed in groups of 6 animals per cage, for a week, in order to habituate them to vivarium conditions (25±4° C., 60-65% relative humidity, 12: 12 h light: dark cycle, with lights on at 7.30 am). All the animal experiments were carried out according to the internationally valid guidelines following approval by the ‘Zydus Research Center animal ethical committee’. SCW Arthritis Female Sprague dawley (SD) rats were primed with an intra-articular injection of 20 μl of peptidoglycan polysaccharide (PGPS), at 0.5 mg/ml of rhamnose in the right ankle. At 2 weeks the paw swelling were measured using a plethysmometer and rats assigned to groups based on initial paw swelling. On day 14 after model initiation, rats were dosed orally (po) with the test compounds. Following the dose administration, 1 h later, the rats received a booster dose of 0.5 ml of PGPS (0.5 mg/ml of rhamnose) via i.v. injection using their tail vein. Compounds were dosed for the following two more days and their paw volumes were measured for 3 more days. The efficacy of the compound was determined as percentage inhibition of paw swelling verses the control (untreated) group.
# TMD-8 cells = assay: Diffused large B cell lymphoma xenografts using TMD-8 cell line; assay type: in vivo, Female SCID mice; details: Dose: 10 mpk, po, SCID mice, Mean ± SD, n = 8
# Description: All the animal experiments were carried out in female rats and mice, bred in-house. Animals were housed in groups of 6 animals per cage, for a week, in order to habituate them to vivarium conditions (25±4° C., 60-65% relative humidity, 12: 12 h light: dark cycle, with lights on at 7.30 am). All the animal experiments were carried out according to the internationally valid guidelines following approval by the ‘Zydus Research Center animal ethical committee’.
# Diffused Large B Cell Lymphoma Xenografts Using TMD-8 Cell Line
# Female SCID mice were inoculated sc with 10×10^6 TMD-8 cells in 0.1 mL of PBS to the right flank. Animals were observed twice weekly for occurrence of tumor. Once the tumors became palpable (around 100 mm^3) around 14 days after injection, treatment was initiated via oral route. Tumor volume was determined every alternate day using digital calipers and the tumor volume was calculated using the formula: [length/2]×[width^2]. Body weights of the animals were also recorded 3 times a week as a measure of treatment related side effect. Treatment was continued for two more weeks and inhibition of tumor volume compared to vehicle control was considered as efficacy endpoint.
# [1] = molecular target: T1, recombinant purified human BTK (Homo sapiens, UniProt Q06187); assay: In vitro BTK kinase assay on ADP Glo platform; assay type: biochemical; details: 2 hr room temperature, read-out: In-vitro BTK inhibitory activity: IC50
# T1 construct: purchased SignalChem, USA
# T1 sequence (Q06187 whole entry): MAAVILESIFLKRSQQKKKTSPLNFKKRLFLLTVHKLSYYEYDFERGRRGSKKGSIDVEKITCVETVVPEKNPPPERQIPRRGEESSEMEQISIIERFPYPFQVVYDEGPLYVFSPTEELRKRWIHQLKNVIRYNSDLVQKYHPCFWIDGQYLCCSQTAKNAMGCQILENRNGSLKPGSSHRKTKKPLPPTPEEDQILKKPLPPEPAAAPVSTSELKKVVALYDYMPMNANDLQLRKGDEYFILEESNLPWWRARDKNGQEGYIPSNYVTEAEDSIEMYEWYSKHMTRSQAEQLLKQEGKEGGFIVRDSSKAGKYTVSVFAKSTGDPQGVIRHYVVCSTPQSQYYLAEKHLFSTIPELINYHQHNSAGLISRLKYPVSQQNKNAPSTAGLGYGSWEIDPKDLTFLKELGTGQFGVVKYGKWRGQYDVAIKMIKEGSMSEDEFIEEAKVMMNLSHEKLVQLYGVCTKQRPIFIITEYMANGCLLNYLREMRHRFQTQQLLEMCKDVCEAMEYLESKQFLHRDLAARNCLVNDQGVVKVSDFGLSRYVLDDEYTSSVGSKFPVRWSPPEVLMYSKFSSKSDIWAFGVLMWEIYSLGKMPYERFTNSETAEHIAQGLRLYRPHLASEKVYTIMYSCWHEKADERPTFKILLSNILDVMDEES
# Summary of the method: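 Recombinant human BTK (3 ng/reaction) with compound dilutions in Tris pH 7.5, MgCl2/MnCl2, BSA, DTT; started with 50 µM ATP (final) and polyGln4Tyr1 substrate, 2 h at room temperature. ADP formed detected by ADP-Glo luminescence; IC50 by nonlinear fit versus uninhibited enzyme as 100%.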
IC50 [1],SMILES,"% inhibition of paw inflammation, Day-16, in SCW Arthritis Model (SCW Arthritis Model)","% Inhibition in tumor volume, Day-16, in TMD-8 Xenografts Model (TMD-8 cells)"
0.1 nM,"C=CC(=O)N1CC2CC(n3nc(-c4ccc(C(=O)N(C)c5cc(C)ccn5)cc4)c4c(N)ncnc43)CC2C1 (stereo not drawn) [Compound 54, 4-(1-(2-acryloyloctahydrocyclopenta[c]pyrrol-5-yl)-4-amino-1H-pyrazolo[3,4-d]pyrimidin-3-yl)-N-methyl-N-(4-methylpyridin-2-yl)benzamide]",89.2 ± 10.3%,92.1 ± 13.1%
4 nM,"C=CC(=O)N1CC2CC(n3nc(-c4ccc(NC(=O)c5ccccn5)cc4)c4c(N)ncnc43)CC2C1 (stereo not drawn) [Compound 32, N-(4-(1-(2-acryloyloctahydrocyclopenta[c]pyrrol-5-yl)-4-amino-1H-pyrazolo[3,4-d]pyrimidin-3-yl)phenyl)picolinamide]",75.3 ± 6.2%,56.1 ± 8.2%
5 nM,"C=CC(=O)N1CC2CC(N3C(=O)N(c4ccc(Oc5ccccc5)cc4)C4C(N)=NC=NC43)CC2C1 (stereo not drawn) [Compound 25, 9-(2-acryloyloctahydrocyclopenta[c]pyrrol-5-yl)-6-amino-7-(4-phenoxyphenyl)-5,7-dihydro-4H-purin-8(9H)-one]",69.6 ± 12.7%,50.2 ± 10.1%
0.1 nM,"C=CC(=O)N1CC2CC(n3nc(-c4ccc(C(=O)Nc5cc(C)ccn5)cn4)c4c(N)ncnc43)CC2C1 (stereo not drawn) [Compound 42, 6-(1-(2-acryloyloctahydrocyclopenta[c]pyrrol-5-yl)-4-amino-1H-pyrazolo[3,4-d]pyrimidin-3-yl)-N-(4-methylpyridin-2-yl)nicotinamide]",51.3 ± 9.7%,62.2 ± 8.8%
1 nM,"C=CC(=O)N1CC2CC(n3nc(-c4ccc(-c5nnc(-c6cnccn6)s5)cc4)c4c(N)ncnc43)CC2C1 (stereo not drawn) [Compound 46, 1-(5-(4-amino-3-(4-(5-(pyrazin-2-yl)-1,3,4-thiadiazol-2-yl)phenyl)-1H-pyrazolo[3,4-d]pyrimidin-1-yl)hexahydrocyclopenta[c]pyrrol-2(1H)-yl)prop-2-en-1-one]",81.8 ± 11.2%,54.3 ± 9.1%
